These results are taken from ChEMBL document CHEMBL3045194, “Neocryptolepine analogues containing N-substituted side-chains at C-11: synthesis and antischistosomicidal activity” (Med Chem Res, 2012).

Assay [1] deals with Schistosoma mansoni. As to the kind of experiment: Antischistosomicidal activity against Schistosoma mansoni egyptian strain assessed as worm mortality at 5 ug/ml after 5 days by stereomicroscopy. The class given is functional. Particulars: 120 h.
Assay [2] has as its system Schistosoma mansoni. As to the kind of experiment: Antischistosomicidal activity against Schistosoma mansoni egyptian strain assessed as worm mortality after 5 days by stereomicroscopy. Conditions: for IC90: Schistosoma mansoni, egyptian strain, 120 h. The assay is classed as functional, organism-based.

Take `Cn1c2nc3ccccc3c-2c(Cl)c2cc(Br)ccc21`: the mortality (in general, the percentage killed) at 5 µg/mL in the assay on Schistosoma mansoni [1] came out at 25%.
In the case of `Cn1c2nc3ccccc3c-2c(NCCc2c[nH]c3ccccc23)c2ccccc21`, the mortality at 5 µg/mL with Schistosoma mansoni [1] came out at 100%. Also, in the assay with Schistosoma mansoni [2], the IC50 worked out at 2.7 uM/ml and the 90% effect concentration (IC90) (as a rule, the point of the concentration-response curve where the effect stands at 90%) turned out to be 3.95 µM.
Turning to `Cn1c2nc3ccccc3c-2c(N2CCOCC2)c2ccccc21`, the mortality at 5 µg/mL in the assay on Schistosoma mansoni [1] was found to be 66.7%.
As to `Cn1c2nc3ccccc3c-2c(NCCCO)c2cc(Br)ccc21`, the mortality at 5 µg/mL in the assay with Schistosoma mansoni [1] amounted to 66.7%.
Regarding `Cn1c2nc3ccccc3c-2c(N2CCN(CCO)CC2)c2cc(C(F)(F)F)ccc21`, the mortality at 5 µg/mL in the assay with Schistosoma mansoni [1] came to 25%.
Take `Cn1c2nc3ccccc3c-2c(NCCCN2CCN(CCCNc3c4c5ccccc5nc-4n(C)c4ccc(Cl)cc34)CC2)c2cc(Cl)ccc21`: in the assay with Schistosoma mansoni [1], the mortality at 5 µg/mL is 100%. In addition, in the assay with Schistosoma mansoni [2], the IC50 came out at 3.42 uM/ml and the IC90 came out at 5.1 µM.
`Cn1c2nc3ccccc3c-2c(NCCCN2CCN(CCCNc3c4c5ccccc5nc-4n(C)c4ccc(C(F)(F)F)cc34)CC2)c2cc(C(F)(F)F)ccc21`: the mortality at 5 µg/mL in the assay on Schistosoma mansoni [1] turned out to be 8.3%.
Consider `Cn1c2nc3ccccc3c-2c(Nc2ccc(CCO)cc2)c2ccccc21`, for which, in the assay with Schistosoma mansoni [1], the mortality at 5 µg/mL stood at 58.3%.
On to `Cn1c2nc3ccccc3c-2c(Nc2ccc(C(F)(F)F)cc2)c2ccccc21`, for which, in the assay with Schistosoma mansoni [1], the mortality at 5 µg/mL was determined as 100%. For the same compound, in the assay on Schistosoma mansoni [2], the IC50 is 3.73 uM/ml and the IC90 was 4.81 µM.
Consider `Cn1c2nc3ccccc3c-2c(Nc2ccc(CCO)cc2)c2cc(Br)ccc21`, for which the mortality at 5 µg/mL with Schistosoma mansoni [1] was found to be 91.7%.
For `Cn1c2nc3ccccc3c-2c(Nc2ccccc2)c2ccccc21`, the mortality at 5 µg/mL in the assay with Schistosoma mansoni [1] was found to be 100%. In addition, in the assay with Schistosoma mansoni [2], the IC50 was found to be 3.07 uM/ml and the IC90 worked out at 4.3 µM.
Regarding `CN1CCN(c2c3c4ccccc4nc-3n(C)c3ccccc23)CC1`, the mortality at 5 µg/mL in the assay with Schistosoma mansoni [1] is 0%.
On to `CN1CCN(c2c3c4ccccc4nc-3n(C)c3ccc(C(F)(F)F)cc23)CC1`, for which the mortality at 5 µg/mL in the assay with Schistosoma mansoni [1] is 100%. In the assay with Schistosoma mansoni [2], the IC50 is 4.61 uM/ml and the IC90 turned out to be 6.05 µM.
`Cn1c2nc3ccccc3c-2c(Cl)c2cc(C(F)(F)F)ccc21`: in the assay on Schistosoma mansoni [1], the mortality at 5 µg/mL was found to be 91.7%.
Turning to `Clc1ccc2nc3[nH]c4ccccc4c3c(Cl)c2c1`, the mortality at 5 µg/mL in the assay with Schistosoma mansoni [1] amounted to 0%.
Take `CCN(CC)CCCC(C)Nc1c2c3ccccc3nc-2n(C)c2ccc(Cl)cc12` (stereo not drawn): the mortality at 5 µg/mL with Schistosoma mansoni [1] is 100%. Further, in the assay on Schistosoma mansoni [2], the IC50 is listed as 11.74 uM/ml and the IC90 stood at 16.8 µM.
Turning to `Cn1c2nc3ccccc3c-2c(Cl)c2ccccc21` [11-CHLORONEOCRYPTOLEPINE], the mortality at 5 µg/mL in the assay on Schistosoma mansoni [1] stood at 75%.
As for `Cn1c2nc3ccccc3c-2cc2ccccc21` [NEOCRYPTOLEPINE], the mortality at 5 µg/mL in the assay with Schistosoma mansoni [1] turned out to be 5%.
On to `O=C(C1CCCCC1)N1CC(=O)N2CCc3ccccc3C2C1` (stereo not drawn) [PRAZIQUANTEL], for which the mortality at 5 µg/mL in the assay with Schistosoma mansoni [1] came out at 100%. Also, in the assay on Schistosoma mansoni [2], the IC50 worked out at 0.21 uM/ml and the IC90 is 0.37 µM.
